Laboratory results taken from patent US10077243B2, “Compounds for treating disorders mediated by metabotropic glutamate receptor 5, and methods of use thereof” (Sunovion Pharmaceuticals Inc., priority 2009, dated 2018).

target: T1, human mGluR5 (Homo sapiens, UniProt P41594); assay: In vitro cell-based FLIPR calcium assay for positive modulation of the activation of mGluR5 by glutamate (PAM EC50); settings: HEK293/GLAST cells expressing recombinant human mGluR5; FLIPR calcium signal; glutamate added at its EC20; read-out: mGluR5 PAM EC50
T1 construct: expressed in transfected cells; host or cells: HEK293 cells stably expressing rat GLAST (EAAT1), stably transfected with pcDNAzeo3.1 carrying synthetic human mGluR5 DNA; zeocin-selected single clones
T1 sequence (P41594 21-1212): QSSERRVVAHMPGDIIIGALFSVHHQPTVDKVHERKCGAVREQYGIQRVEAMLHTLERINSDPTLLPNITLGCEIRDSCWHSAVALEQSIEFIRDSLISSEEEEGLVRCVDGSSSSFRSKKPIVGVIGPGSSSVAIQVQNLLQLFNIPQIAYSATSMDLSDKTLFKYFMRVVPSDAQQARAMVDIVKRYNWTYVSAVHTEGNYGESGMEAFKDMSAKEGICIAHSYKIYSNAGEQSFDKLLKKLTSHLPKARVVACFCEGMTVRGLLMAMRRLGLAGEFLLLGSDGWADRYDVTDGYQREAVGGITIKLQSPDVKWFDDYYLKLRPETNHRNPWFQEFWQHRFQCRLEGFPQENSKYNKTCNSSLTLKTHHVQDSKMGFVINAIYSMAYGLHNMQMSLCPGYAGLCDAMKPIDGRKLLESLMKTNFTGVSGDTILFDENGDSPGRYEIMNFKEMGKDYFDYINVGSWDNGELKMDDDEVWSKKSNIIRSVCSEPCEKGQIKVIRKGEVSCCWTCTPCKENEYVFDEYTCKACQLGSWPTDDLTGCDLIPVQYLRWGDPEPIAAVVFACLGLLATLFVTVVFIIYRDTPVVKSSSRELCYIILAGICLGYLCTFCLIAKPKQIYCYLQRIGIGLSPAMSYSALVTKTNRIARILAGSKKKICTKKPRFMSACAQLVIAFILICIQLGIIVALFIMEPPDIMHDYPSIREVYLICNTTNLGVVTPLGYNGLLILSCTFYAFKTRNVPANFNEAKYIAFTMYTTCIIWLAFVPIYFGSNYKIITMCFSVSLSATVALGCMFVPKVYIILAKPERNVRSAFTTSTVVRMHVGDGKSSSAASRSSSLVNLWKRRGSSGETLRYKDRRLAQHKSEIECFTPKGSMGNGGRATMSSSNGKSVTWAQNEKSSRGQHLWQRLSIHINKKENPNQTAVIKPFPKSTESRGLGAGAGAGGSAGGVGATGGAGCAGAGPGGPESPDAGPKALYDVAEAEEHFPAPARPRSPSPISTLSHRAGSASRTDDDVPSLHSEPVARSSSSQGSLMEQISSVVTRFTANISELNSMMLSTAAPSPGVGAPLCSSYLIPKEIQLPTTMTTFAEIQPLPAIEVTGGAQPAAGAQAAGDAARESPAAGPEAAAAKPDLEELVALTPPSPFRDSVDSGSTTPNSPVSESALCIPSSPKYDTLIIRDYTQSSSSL
From the text: The DNA sequences encoding the structural regions for rat mGluR5 [Abe T, Sugihara H, Nawa H, Shigemoto R, Mizuno N, Nakanishi S (1992) “Molecular characterization of a novel metabotropic glutamate receptor mGluR5 coupled to inositol phosphate/Ca^2+ signal transduction” Journal of Biological Chemistry vol. 267, no. 19, pp. 13361-8] and human mGluR5 [Daggett L P, Sacaan A I, Akong M, Rao S P, Hess S D, Liaw C, Urrutia A, Jachec C, Ellis S B, Dreessen J, Knöpfel T, Landwehrmeyer G B, Testa C M, Young A B, Varney M, Johnson E C, Veliçelebi (1995) “Molecular and functional characterization of recombinant human metabotropic glutamate receptor subtype 5” Neuropharmacology vol. 34, no. […] 53, no. 3, pp. 355-369] was obtained from Dr. Michael Robinson of the Children's Hospital of Philadelphia under a Material Transfer Agreement. The pcDNAzeo3.1 vector DNA, carrying either rat mGluR5 or human mGluR5, was used to transfect a sample of the HEK293/GLAST cells, and single clones that express mGluR5 were isolated from the transfected cells using zeocin selection. Expression of mGluR5 was assessed by measurement of the transient fluorescence signal elicited from HEK293/GLAST/mGluR5 cells by glutamate following the loading of the cells with a calcium-sensitive dye using a FLIPR Tetra (Fluorometric Imaging Plate Reader) (Molecular Devices, Sunnyvale, Calif.) [O'Brien J A, Lemaire W, Chen T B, Chang R S, Jacobson M A, Ha S N, Lindsley C W, Schaffhauser H J, Sur C, Pettibone D J, Conn P J, Williams D L Jr. […] 64, no. 3, pp. 731-740; Assay Guidance Manual Version 5.0, 2008, Eli Lilly and Company and NIH Chemical Genomics Center; available online HEK293/GLAST/mGluR5 cells were grown in Dulbecco's Modified Eagle Medium (DMEM) supplemented with 10% dialyzed fetal bovine serum, 20 millimolar (mM) N-2-hydroxyethylpiperazine-N′-2-ethanesulfonic acid (HEPES), penicillin, streptomycin, 1% GlutaMax™ (Invitrogen) and 50 μg/ml zeocin. Cells were grown in the media to 70-80% confluency at 37° C. under 5% CO2, 95% humidity in poly-D-lysine coated coated flasks. Cells for assays were plated into 96-well sterile standard microtiter plates (pre-coated with poly-D-lysine) at a density of 50,000 cells per well in 0.2 milliliters of media. Plated cells were allowed to settle and adhere for 30 minutes at ambient conditions, and then were incubated overnight at 37° C. under 5% CO2, 95% humidity. Several such 96-well plates were typically prepared. On the day of the assays, the components of the FLIPR calcium 4 assay kit (Molecular Devices) were dissolved according to the instructions of the dye kit's manufacturer in assay buffer (Hank's balanced salt solution (HBSS) (Gibco) supplemented with 20 mM HEPES). After removal of the growth media from the first plate, cells were loaded with calcium dye by addition of calcium dye solution (50 microliters per well) and incubation at 25° C. for 45 to 60 minutes. The first plate was placed into the FLIPR Tetra, and a dilution series of glutamate solutions in assay buffer were added to wells on the plate, followed by acquisition of fluorescence data for several minutes. The fluorescence data (maximal signal as a 4-parameter sigmoidal function of log [glutamate]) were processed by non-linear regression methods using the software package GraphPad Prism 5.01 (GraphPad Software Inc.), to yield a glutamate concentration-response curve (CRC). […] These values were, respectively, the concentrations of glutamate that elicit 20%, 50%, and 80% of the maximal FLIPR signal (observed at saturating [glutamate]). The method for measuring the concentration response of a potentiator, or positive allosteric modulator (PAM), is described here as an example. For that purpose, subsequent assays were typically performed using assay buffer containing a glutamate concentration equal to that day's EC20. […] Addition to certain wells of the same buffer containing 0.3% DMSO, but without any test compound, provided a negative control.

| EC50 [nM] | Compound |
| --- | --- |
| 10 to 30 | CCC1CCCc2nc3cc(C#Cc4ccccn4)ccc3c(=O)n21 (stereo not shown) [Example 4.19, 9-ethyl-3-(pyridin-2-ylethynyl)-8,9-dihydro-6H-pyrido[2,1-b]quinazolin-11(7H)-one] |
| < 10 | COC1CCc2nc3cc(C#Cc4cccc(F)c4)ccc3c(=O)n2C1 (stereo not shown) [Example 4.25, 3-((3-fluorophenyl)ethynyl)-8-methoxy-8,9-dihydro-6H-pyrido[2,1-b]quinazolin-11(7H)-one] |
| 10 to 30 | CN1CCn2c(nc3cc(C#Cc4ccc(F)cc4)ccc3c2=O)C1 [Example 5.3, 9-((4-fluorophenyl)ethynyl)-2-methyl-3,4-dihydro-1H-pyrazino[2,1-b]quinazolin-6(2H)-one] |
| < 10 | O=c1c2ccc(C#Cc3ccccn3)cc2nc2n1CCC1(CC2)CC1 [Example 6.51, 3-(pyridin-2-ylethynyl)-9,10-dihydro-6H-spiro[azepino[2,1-b]quinazoline-8,1′-cyclopropan]-12(7H)-one] |
| 100 to 300 | O=c1c2ccc(C#Cc3ccccn3)cc2nc2n1CC(CO)C2 (stereo not shown) [Example 3.18, 2-(hydroxymethyl)-6-(pyridin-2-ylethynyl)-2,3-dihydropyrrolo[2,1-b]quinazolin-9(1H)-one] |
| 10 to 30 | C=C1CCc2nc3cc(C#Cc4cccc(F)c4)ccc3c(=O)n2C1 [Example 4.28, 3-((3-fluorophenyl)ethynyl)-8-methylene-8,9-dihydro-6H-pyrido[2,1-b]quinazolin-11(7H)-one] |
| 30 to 100 | O=c1c2ccc(C#Cc3ccc(F)cn3)cc2nc2n1CCC1(CC2)OCCO1 [Example 7.13] |
| 100 to 300 | O=c1c2ccc(C#Cc3ccccn3)cc2nc2n1CCN(CCC(F)(F)F)CC2 [Example 8.21, 8-(pyridin-2-ylethynyl)-3-(3,3,3-trifluoropropyl)-2,3,4,5-tetrahydro-[1,4]diazepino[7,1-b]quinazolin-11(1H)-one] |
| 10 to 30 | CN1CCCn2c(nc3cc(C#Cc4ccc(F)cc4)ccc3c2=O)CC1 [Example 10.1, 11-((4-fluorophenyl)ethynyl)-3-methyl-3,4,5,6-tetrahydro-1H-[1,5]diazocino[2,1-b]quinazolin-8(2H)-one] |
| 30 to 100 | CCOCc1cnc2cc(C#Cc3cccc(F)c3)ccn2c1=O [Example 13.8, 3-(ethoxymethyl)-8-((3-fluorophenyl)ethynyl)-4H-pyrido[1,2-a]pyrimidin-4-one] |
| 30 to 100 | O=c1c2ccc(C#Cc3ccccn3)cc2nc2n1CCC(O)CC2 (stereo not shown) [Example 6.16, 8-hydroxy-3-(pyridin-2-ylethynyl)-7,8,9,10-tetrahydroazepino[2,1-b]quinazolin-12(6H)-one] |
| 100 to 300 | CC(O)c1cnc2cc(C#Cc3cccc(F)c3)ccn2c1=O (stereo not shown) [Example 13.1, 8-((3-fluorophenyl)ethynyl)-3-(1-hydroxyethyl)-4H-pyrido[1,2-a]pyrimidin-4-one] |
| < 10 | CC1(F)CCc2nc3cc(C#Cc4ccccn4)ccc3c(=O)n2CC1 (single isomer, unassigned) [Example 6.48a/6.48b slower moving enantiomer (fraction 2), 8-fluoro-8-methyl-3-(pyridin-2-ylethynyl)-7,8,9,10-tetrahydroazepino[2,1-b]quinazolin-12(6H)-one] |
| < 10 | O=c1c2ccc(C#Cc3cccc(F)c3)cc2nc2n1CC1CCCN1C2 (stereo not shown) [Example 5.21, 8-((3-fluorophenyl)ethynyl)-2,3,13,13a-tetrahydro-1H-pyrrolo[1′,2′:4,5]pyrazino[2,1-b]quinazolin-11(5H)-one] |
| 10 to 30 | CC1CCc2nc3cc(C#Cc4ccccn4)ccc3c(=O)n2C1 (stereo not shown) [Example 4.12, 8-methyl-3-(pyridin-2-ylethynyl)-8,9-dihydro-6H-pyrido[2,1-b]quinazolin-11(7H)-one] |
| 300 to 1000 | N#CCN1CCc2nc3cc(C#Cc4ccccn4)ccn3c(=O)c2C1 [Example 15.6, 2-(11-oxo-7-(pyridin-2-ylethynyl)-3,4-dihydro-1H-dipyrido[1,2-a:4′,3′-d]pyrimidin-2(11H)-yl)acetonitrile] |
| 100 to 300 | O=c1c2ccc(C#Cc3cccc(F)c3)cc2nc2n1CCN(C1CCOC1)CC2 (stereo not shown) [Example 8.13, 8-((3-fluorophenyl)ethynyl)-3-(tetrahydrofuran-3-yl)-2,3,4,5-tetrahydro-[1,4]diazepino[7,1-b]quinazolin-11(1H)-one acetonitrile] |
| 100 to 300 | CN1CCc2nc3cc(C#Cc4ccc(F)cc4)ccc3c(=O)n2CC1 [Example 8.1, 8-((4-fluorophenyl)ethynyl)-3-methyl-2,3,4,5-tetrahydro-[1,4]diazepino[7,1-b]quinazolin-11(1H)-one] |
| 100 to 300 | COCCN1CCc2nc3cc(C#Cc4cccc(F)c4)ccc3c(=O)n2CC1 [Example 8.10, 8-((3-fluorophenyl)ethynyl)-3-(2-methoxyethyl)-2,3,4,5-tetrahydro-[1,4]diazepino[7,1-b]quinazolin-11(1H)-one] |
| < 10 | CC1Cc2nc3cc(C#Cc4cccc(F)c4)ccc3c(=O)n2C1 (stereo not shown) [Example 3.8] |
| 30 to 100 | O=c1c2ccc(C#Cc3ccccn3)cc2nc2n1CC1CCCN1CC2 (single isomer, unassigned) [Example 9.4a/9.4b faster moving enantiomer (fraction 1), 9-(pyridin-2-ylethynyl)-2,3,5,6,14,14a-hexahydropyrrolo[2′,1′:3,4][1,4]diazepino[7,1-b]quinazolin-12(1H)-one] |
| < 10 | O=c1c2ccc(/C=C/c3ccccc3)cc2nc2n1CCCCC2 [Example 20.2, (E)-3-styryl-7,8,9,10-tetrahydroazepino[2,1-b]quinazolin-12(6H)-one] |
| < 10 | Cc1cnc(NC(=O)c2ccn3c(=O)c4c(nc3c2)CCCCCC4)s1 [Example 28.1, N-(5-methylthiazol-2-yl)-12-oxo-7,8,9,10,11,12-hexahydro-6H-cycloocta[d]pyrido[1,2-a]pyrimidine-3-carboxamide] |
| < 10 | O=c1c2c(nc3cc(C#Cc4cccnc4)ccn13)CCCCC2 [Example 16.4, 3-(pyridin-3-ylethynyl)-7,8,9,10-tetrahydrocyclohepta[d]pyrido[1,2-a]pyrimidin-11(6H)-one] |
| 30 to 100 | O=c1c2ccc(C#Cc3ccccn3)cc2nc2n1CCC1(CC2)OCCO1 [Example 7.10] |
| 10 to 30 | CCNC(=O)c1cnc2cc(C#Cc3cccc(F)c3)ccn2c1=O [Example 13.5, N-ethyl-8-((3-fluorophenyl)ethynyl)-4-oxo-4H-pyrido[1,2-a]pyrimidine-3-carboxamide] |
| 300 to 1000 | N#Cc1cc(C#Cc2ccc3c(=O)n4c(nc3c2)CCC2(CC4)OCCO2)ccc1F [Example 7.19] |
| 10 to 30 | Cc1cnc(C#Cc2ccc3c(=O)n4c(nc3c2)CCC(C)CC4)s1 (stereo not shown) [Example 6.8, 8-methyl-3-((5-methylthiazol-2-yl)ethynyl)-7,8,9,10-tetrahydroazepino[2,1-b]quinazolin-12(6H)-one] |
| 10 to 30 | N#Cc1cccc(C#Cc2ccc3c(=O)n4c(nc3c2)CCCCC4)n1 [Example 6.45] |
| 300 to 1000 | O=c1c2ccc(C#Cc3ccccn3)cc2nc2n1CC(O)CC2 (stereo not shown) [Example 4.24, 8-hydroxy-3-(pyridin-2-ylethynyl)-8,9-dihydro-6H-pyrido[2,1-b]quinazolin-11(7H)-one] |

| Compound | EC50 [nM] |
| --- | --- |
| CC1CCc2c(nc3cc(C#Cc4ccccn4)ccn3c2=O)C1 (stereo not shown) [Example 15.2, 3-methyl-7-(pyridin-2-ylethynyl)-3,4-dihydro-1H-pyrido[2,1-b]quinazolin-11(2H)-one] | < 10 |
